Experiments:
murine leukemia P-388 = assay: Anticancer activity in mice with leukemia P-388, survival time (T/C); assay type: in vivo; conditions: for T/C (second value, in parentheses): not explained
Description: (§1) The following Table I sets forth the comparative results of the effectiveness of the parent antibiotic, daunorubicin, in the inhibition of the growth of the cancerous cells of murine leukemia P-388 in mice versus the anticancer activity of enamine derivatives of daunorubicin according to the present invention. ED50 denotes the concentration of the compound being tested leading to 50 percent inhibition of cancerous cell growth at 48 hours incubation time of the compound being tested. LD50 indicates the dosage of the tested compounds which cause death after 24 hours of one-half of the number of mice which have been intraperitonically administered the subject compound. T/C in percent represents the ratio of mean survival time of the group of treated mice versus the group of untreated mice.

[1] = Acute toxicity in mice after intraperitoneal administration (LD50, 24 hours); assay type: in vivo; conditions: mouse, in vivo, ip; mice, intraperitoneal, death of one-half after 24 hours
Description: as §1

mice = assay: as above; assay type: in vivo; conditions: daunorubicin versus the inventive derivatives
Description: as §1

cardiac muscle of rats [2] = conditions: i.p., three dosage levels (0.2, 10, 20 mg/kg), H+E, light and polarizing microscopes; cited from earlier work
cardiac muscle of rats [3] = assay: Examination of the cardiac muscle of rats after intraperitoneal administration (cardiotoxicity); assay type: in vivo; conditions: i.p., 0.2, 10 and 20 mg/kg, versus daunorubicin
From the text: Preparations from cardiac muscle tinted with H+E have been examined under light and polarizing microscopes.

Structure (SMILES): COc1cccc2c1C(=O)c1c(O)c3c(c(O)c1C2=O)C[C@@](O)(C(C)=O)C[C@@H]3O[C@H]1C[C@H](N)[C@H](O)[C@H](C)O1 [Daunorubicin, daunorubicin]
- T/C (murine leukemia P-388; Dose (mg/kg) 3 130): 108%
- T/C (murine leukemia P-388; Dose (mg/kg) 6 250): 112%
- T/C (murine leukemia P-388; Dose (mg/kg) 12 500): 112%
- T/C (murine leukemia P-388; Dose (mg/kg) 25 000): 127%
- T/C (murine leukemia P-388; Dose (mg/kg) 50 000): 102%
- LD50 at 24 h [1]: 135 mg/kg
- dosage level of toxic effects (mice): occur at a far lower dosage level as opposed to the inventive derivatives
- subsegmentary contractions / disturbances in heart rhythm (cardiac muscle of rats [2]): leads to the formation of numerous subsegmentary contractions causing, in effect, disturbances in heart rhythm

Structure (SMILES): CCOC(=O)C=C(C)N[C@H]1C[C@H](O[C@H]2C[C@](O)(C(C)=O)Cc3c(O)c4c(c(O)c32)C(=O)c2c(OC)cccc2C4=O)O[C@@H](C)[C@H]1O [N-(1-carboethoxy-propen-1-yl-2)-daunorubicin]
- T/C (murine leukemia P-388; Dose (mg/kg) 3 130): 94%
- T/C (murine leukemia P-388; Dose (mg/kg) 6 250): 103%
- T/C (murine leukemia P-388; Dose (mg/kg) 12 500): 103%
- T/C (murine leukemia P-388; Dose (mg/kg) 25 000): 115%
- T/C (second value, in parentheses) (murine leukemia P-388; Dose (mg/kg) 25 000): 119%
- T/C (murine leukemia P-388; Dose (mg/kg) 50 000): 132%
- T/C (second value, in parentheses) (murine leukemia P-388; Dose (mg/kg) 50 000): 128%
- T/C (murine leukemia P-388; Dose (mg/kg) 100 000): 144%
- T/C (murine leukemia P-388; Dose (mg/kg) 200 000): 102%
- LD50 at 24 h [1]: 500 mg/kg
- morphological and ultrastructural changes to muscular tissue (cardiac muscle of rats [3]): considerably less morphological and ultrastructural changes to muscular tissue than does the initial daunorubicin
- subsegmentary contractions / disturbances in heart rhythm (cardiac muscle of rats [2]): does not cause said disturbances, the cardiac muscle evidencing a regular and alternating system of isotropic and anizotropic fringes

Structure (SMILES): COc1cccc2c1C(=O)c1c(O)c3c(c(O)c1C2=O)C[C@@](O)(C(C)=O)C[C@@H]3O[C@H]1C[C@H](NC(C)=CC(C)=O)[C@H](O)[C@H](C)O1 [N--(penten-2-on-4 yl-2)-daunorubicin, N-(penten-2-on-4-yl-2) daunorubicin]
- T/C (murine leukemia P-388; Dose (mg/kg) 3 130): 131%
- T/C (murine leukemia P-388; Dose (mg/kg) 6 250): 110%
- T/C (murine leukemia P-388; Dose (mg/kg) 12 500): 119%
- T/C (murine leukemia P-388; Dose (mg/kg) 25 000): 125%
- T/C (second value, in parentheses) (murine leukemia P-388; Dose (mg/kg) 25 000): 131%
- T/C (murine leukemia P-388; Dose (mg/kg) 50 000): 118%
- T/C (second value, in parentheses) (murine leukemia P-388; Dose (mg/kg) 50 000): 144%
- T/C (murine leukemia P-388; Dose (mg/kg) 100 000): 147%
- T/C (murine leukemia P-388; Dose (mg/kg) 200 000): toxic
- LD50 at 24 h [1]: 500 mg/kg

— patent US4824944A, “Antineoplastic enamine derivatives of daunorubicin and adriamycin” (Politechnika Gdanska, priority 1987, dated 1989)
